Key:
human CB1 receptor = biological target: T1, human CB1 receptor (Homo sapiens, UniProt P21554); experiment: Binding assay for CB1 agonists or inverse agonists, [3H]-CP-55,940 displacement on membranes of transfected SK-N-MC cells; conditions: for inhibition at 0.2 µM: read-out: Cannabinoid CB1 Receptor Binding percent inhibition
T1 construct: expressed in transfected cells; host or cells: SK-N-MC cells, stably transfected with pcDNA3 CB-1 (human); semi-purified membrane pellet
Experimental: (§1) The human CB1 and CB2 receptors were stably expressed in SK-N-MC cells transfected with pcDNA3 CB-1 (human) or pcDNA3 CB-2 (human). The cells were grown in T-180 cell culture flasks under standard cell culture conditions at 37° C. in a 5% CO2 atmosphere. The cells were harvested by trysinization and homogenized in a homogenization buffer (10 mM Tris, 0.2 mM MgCl2, 5 mM KCl, with protease inhibitors aprotinin, leupeptin, pepstatin A and bacitracin) and centrifuged (2000 g). The supernatant was then centrifuged in 2M sucrose (31,300 g) to produce a semi-purified membrane pellet. The pellet was resuspended in homogenization and stored at −80° C.
(§2) On the day of the assay, the pellet was thawed on ice and diluted in assay buffer (50 mM Tris-HCl, 5 mM MgCl2, 2.5 mM EDTA, 0.5 mg/mL fatty acid free bovine serum albumin, pH 7.5). […] The plate was covered and incubated for 90 minutes at 30° C. The contents were then aspirated onto a Packard Unifilter GF/C filter bottom plate prewet with 0.5% polyethyleneimine. The wells of the polypropylene plate were rinsed and aspirated seven times with a 0.9% saline-0.5% Tween 20 solution. The Unifilter plate was dried, a scintillation cocktail was added to each well and the counts representing binding were quantitated in a TopCount scintillation counter.
(§3) For compounds tested, an IC50 binding value was obtained from percent inhibition studies in which various test concentrations were used. The binding value was calculated by linear regression. An average value is shown for those compounds where two or more IC50 values were obtained.
(§4) An average value is shown for those compounds where two or more percent inhibition values were obtained.

human CB2 receptor = biological target: T2, human CB2 receptor (Homo sapiens, UniProt P34972); experiment: Binding assay for CB2 agonists or inverse agonists, [3H]-CP-55,940 displacement on membranes of transfected SK-N-MC cells; conditions: for inhibition at 0.2 µM: read-out: Cannabinoid CB2 Receptor Binding percent inhibition
T2 construct: expressed in transfected cells; host or cells: SK-N-MC cells, stably transfected with pcDNA3 CB-2 (human); semi-purified membrane pellet
T2 sequence (P34972 whole entry): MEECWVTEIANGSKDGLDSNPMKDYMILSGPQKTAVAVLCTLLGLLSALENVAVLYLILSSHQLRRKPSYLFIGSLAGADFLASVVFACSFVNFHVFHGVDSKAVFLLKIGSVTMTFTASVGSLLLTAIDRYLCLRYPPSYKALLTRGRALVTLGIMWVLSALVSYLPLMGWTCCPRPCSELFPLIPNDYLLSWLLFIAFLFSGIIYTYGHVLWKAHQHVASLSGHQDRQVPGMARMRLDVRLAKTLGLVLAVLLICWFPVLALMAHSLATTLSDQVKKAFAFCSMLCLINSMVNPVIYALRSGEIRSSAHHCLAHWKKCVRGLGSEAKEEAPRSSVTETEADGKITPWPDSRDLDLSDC
Experimental: as §1, §2, §3, §4

T1 sequence (P21554 whole entry): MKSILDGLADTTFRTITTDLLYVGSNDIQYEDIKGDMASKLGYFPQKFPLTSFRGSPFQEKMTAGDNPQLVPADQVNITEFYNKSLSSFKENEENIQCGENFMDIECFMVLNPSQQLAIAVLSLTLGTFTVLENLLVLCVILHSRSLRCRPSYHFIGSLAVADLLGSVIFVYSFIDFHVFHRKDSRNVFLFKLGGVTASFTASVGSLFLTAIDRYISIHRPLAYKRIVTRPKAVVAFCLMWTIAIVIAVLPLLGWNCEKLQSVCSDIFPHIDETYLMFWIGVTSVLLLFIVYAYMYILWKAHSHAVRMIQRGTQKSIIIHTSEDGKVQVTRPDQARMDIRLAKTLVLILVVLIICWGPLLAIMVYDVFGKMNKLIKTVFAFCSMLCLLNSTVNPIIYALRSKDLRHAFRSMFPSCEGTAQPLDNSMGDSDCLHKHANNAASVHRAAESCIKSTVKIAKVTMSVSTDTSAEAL

| SMILES | IC50 (human CB1 receptor) | inhibition at 0.2 µM (human CB2 receptor) | IC50 (human CB2 receptor) | inhibition at 0.2 µM (human CB1 receptor) |
| --- | --- | --- | --- | --- |
| O=C(NN1CCCCC1)C1CCCc2c1nn(-c1ccc(Cl)cc1Cl)c2-c1ccc(Cl)cc1 (stereo not shown) [Cpd 33, 3-(4-chloro-phenyl)-2-(2,4-dichloro-phenyl)-4,5,6,7-tetrahydro-2H-indazole-7-carboxylic acid piperidin-1-ylamide] | 0.039 µM | 0% |  |  |
| COc1ccc(-n2nc3c(c2-c2ccc(C)cc2)CCCC3C(=O)NC(C)C23CCC4CC(CC4C2)C3)cc1 (stereo not shown) [Cpd 2, 2-(4-methoxy-phenyl)-3-p-tolyl-4,5,6,7-tetrahydro-2H-indazole-7-carboxylic acid [1-(octahydro-2,5-methano-inden-5-yl)-ethyl]-amide] | 2.13 µM |  | 2.6 µM |  |
| O=C(NN1CCCCC1)[C@@H]1CCCc2c1nn(-c1ccc(Cl)cc1Cl)c2-c1ccc(Br)cc1 [Cpd 51, (7R)-3-(4-bromo-phenyl)-2-(2,4-dichloro-phenyl)-4,5,6,7-tetrahydro-2H-indazole-7-carboxylic acid piperidin-1-ylamide] | 0.014 µM | 27% |  |  |
| Cc1ccc(-c2c3c(nn2Cc2ccccc2)C(C(=O)NC2C4(C)CCC(C4)C2(C)C)CCC3)cc1 (stereo not shown) [Cpd 6, 2-benzyl-3-p-tolyl-4,5,6,7-tetrahydro-2H-indazole-7-carboxylic acid (1,3,3-trimethyl-bicyclo[2.2.1]hept-2-yl)-amide] | 0.4 µM |  | 0.84 µM |  |
| CC(NC(=O)C1CCCc2c1nn(Cc1ccccc1)c2-c1ccc(Cl)cc1)C12CC3CC(CC(C3)C1)C2 (stereo not shown) [Cpd 18, 2-benzyl-3-(4-chloro-phenyl)-4,5,6,7-tetrahydro-2H-indazole-7-carboxylic acid (1-adamantan-1-yl-ethyl)-amide] | 6.2 µM |  | 1.9 µM |  |
| O=C(NN1CCCCC1)C1CCCc2c1nn(-c1ccc(Cl)cc1Cl)c2-c1ccc(Br)cc1 (stereo not shown) [Cpd 41, 3-(4-bromo-phenyl)-2-(2,4-dichloro-phenyl)-4,5,6,7-tetrahydro-2H-indazole-7-carboxylic acid piperidin-1-ylamide] | 0.04 µM | 26% |  |  |
| COc1ccc(-c2c3c(nn2-c2ccc(Cl)cc2Cl)C(C(=O)N[C@H](C)c2ccccc2)CCC3)cc1 (stereo partly drawn) [Cpd 23, 2-(2,4-dichloro-phenyl)-3-(4-methoxy-phenyl)-4,5,6,7-tetrahydro-2H-indazole-7-carboxylic acid [(1R)-1-phenyl-ethyl]-amide] | 0.008 µM | 28% |  |  |
| COc1ccc(-c2c3c(nn2-c2ccc(Cl)cc2Cl)C(C(=O)NN2CCCCCC2)CCC3)cc1 (stereo not shown) [Cpd 22, 2-(2,4-dichloro-phenyl)-3-(4-methoxy-phenyl)-4,5,6,7-tetrahydro-2H-indazole-7-carboxylic acid azepan-1-ylamide] |  | 22% |  | 59% |
| O=C(N[C@H](CO)c1ccccc1)[C@H]1CCCc2c1nn(-c1ccc(Cl)cc1Cl)c2-c1ccc(Br)s1 [Cpd 56, (7S)-3-(5-bromo-thiophen-2-yl)-2-(2,4-dichloro-phenyl)-4,5,6,7-tetrahydro-2H-indazole-7-carboxylic acid [(1S)-2-hydroxy-1-phenyl-ethyl]-amide] | 0.046 µM |  | 0.3 µM |  |
| C[C@@H](NC(=O)[C@@H]1CCCc2c1nn(-c1ccc(Cl)cc1Cl)c2-c1ccc(Cl)cc1)c1ccccc1 [Cpd 40, (7R)-3-(4-chloro-phenyl)-2-(2,4-dichloro-phenyl)-4,5,6,7-tetrahydro-2H-indazole-7-carboxylic acid [(1R)-1-phenyl-ethyl]-amide] | 0.0006 µM | 11% |  |  |
| C[C@@H](NC(=O)C1CCCc2c1nn(-c1ccc(Cl)cc1Cl)c2-c1ccc(Cl)s1)C1CCCCC1 (stereo partly drawn) [Cpd 47, 3-(5-chloro-thiophen-2-yl)-2-(2,4-dichloro-phenyl)-4,5,6,7-tetrahydro-2H-indazole-7-carboxylic acid [(1R)-1-cyclohexyl-ethyl]-amide] | 0.004 µM | 5% |  |  |
| C[C@@H](NC(=O)[C@H]1CCCc2c1nn(-c1ccc(Cl)cc1Cl)c2-c1ccc(F)cc1)c1ccccc1 [Cpd 37, (7S)-2-(2,4-dichloro-phenyl)-3-(4-fluoro-phenyl)-4,5,6,7-tetrahydro-2H-indazole-7-carboxylic acid [(1R)-1-phenyl-ethyl]-amide] |  | 4% |  | 50% |
| C[C@@H](NC(=O)[C@@H]1CCCc2c1nn(-c1ccc(Cl)cc1Cl)c2-c1ccc(Br)s1)C1CCCCC1 [Cpd 55, (7R)-3-(5-bromo-thiophen-2-yl)-2-(2,4-dichloro-phenyl)-4,5,6,7-tetrahydro-2H-indazole-7-carboxylic acid [(1R)-1-cyclohexyl-ethyl]-amide] | 0.003 µM | 27% |  |  |
| C[C@@H](NC(=O)[C@H]1CCCc2c1nn(-c1ccc(Cl)cc1Cl)c2-c1ccc(Br)cc1)c1ccccc1 [Cpd 45, (7S)-3-(4-bromo-phenyl)-2-(2,4-dichloro-phenyl)-4,5,6,7-tetrahydro-2H-indazole-7-carboxylic acid [(1R)-1-phenyl-ethyl]-amide] |  | 11% |  | 66% |
| CC12CCC(C1)C(C)(C)[C@H]2NC(=O)C1CCCc2c1nn(Cc1ccccc1)c2-c1cccc(F)c1 (stereo partly drawn) [Cpd 19, 2-benzyl-3-(3-fluoro-phenyl)-4,5,6,7-tetrahydro-2H-indazole-7-carboxylic acid [(2S)-1,3,3-trimethyl-bicyclo[2.2.1]hept-2-yl]-amide] | 0.4 µM |  | 0.29 µM |  |
| COc1ccc(-c2c3c(nn2-c2ccc(Cl)cc2Cl)[C@H](C(=O)N[C@H](C)c2ccccc2)CCC3)cc1 [Cpd 24, (7R)-2-(2,4-dichloro-phenyl)-3-(4-methoxy-phenyl)-4,5,6,7-tetrahydro-2H-indazole-7-carboxylic acid [(1R)-1-phenyl-ethyl]-amide] |  | 28% |  | 58% |
| COC[C@H]1CCCN1NC(=O)C1CCCc2c1nn(-c1ccc(Cl)cc1Cl)c2-c1ccc(OC)cc1 (stereo partly drawn) [Cpd 32, 2-(2,4-dichloro-phenyl)-3-(4-methoxy-phenyl)-4,5,6,7-tetrahydro-2H-indazole-7-carboxylic acid [(2R)-2-methoxymethyl-pyrrolidin-1-yl]-amide] |  | 6% |  | 46% |
| C[C@@H](NC(=O)[C@@H]1CCCc2c1nn(-c1ccc(Cl)cc1Cl)c2-c1ccc(F)cc1)c1ccccc1 [Cpd 38, (7R)-2-(2,4-dichloro-phenyl)-3-(4-fluoro-phenyl)-4,5,6,7-tetrahydro-2H-indazole-7-carboxylic acid [(1R)-1-phenyl-ethyl]-amide] | 0.002 µM | 14% |  |  |
| C[C@@H](NC(=O)[C@H]1CCCc2c1nn(-c1ccc(Cl)cc1Cl)c2-c1ccc(Br)s1)C1CCCCC1 [Cpd 54, (7S)-3-(5-bromo-thiophen-2-yl)-2-(2,4-dichloro-phenyl)-4,5,6,7-tetrahydro-2H-indazole-7-carboxylic acid [(1R)-1-cyclohexyl-ethyl]-amide] |  | 12% |  | 35% |
| CC(NC(=O)C1CCCc2c1nn(Cc1ccccc1)c2-c1cccc(F)c1)C1CCCCC1 (stereo not shown) [Cpd 9, 2-benzyl-3-(3-fluoro-phenyl)-4,5,6,7-tetrahydro-2H-indazole-7-carboxylic acid (1-cyclohexyl-ethyl)-amide] | 3.5 µM |  | 2.13 µM |  |
| CC12CCC(C1)C(C)(C)C2NC(=O)C1CCCc2c1nn(Cc1ccccc1)c2-c1ccc(Cl)cc1 (stereo not shown) [Cpd 4, 2-benzyl-3-(4-chloro-phenyl)-4,5,6,7-tetrahydro-2H-indazole-7-carboxylic acid (1,3,3-trimethyl-bicyclo[2.2.1]hept-2-yl)-amide] | 5.52 µM |  | 3.9 µM |  |
| COc1ccc(-c2c3c(nn2-c2ccc(Cl)cc2Cl)[C@@H](C(=O)N[C@H](C)c2ccccc2)CCC3)cc1 [Cpd 25, (7S)-2-(2,4-dichloro-phenyl)-3-(4-methoxy-phenyl)-4,5,6,7-tetrahydro-2H-indazole-7-carboxylic acid [(1R)-1-phenyl-ethyl]-amide] | 0.004 µM | 35% |  |  |
| CN(NC(=O)C1CCCc2c1nn(-c1ccc(Cl)cc1Cl)c2-c1ccc(Cl)cc1)c1ccccc1 (stereo not shown) [Cpd 35, 3-(4-chloro-phenyl)-2-(2,4-dichloro-phenyl)-4,5,6,7-tetrahydro-2H-indazole-7-carboxylic acid N′-methyl-N′-phenyl-hydrazide] | 0.002 µM | 3% |  |  |
| O=C(N[C@H](CO)c1ccccc1)[C@@H]1CCCc2c1nn(-c1ccc(Cl)cc1Cl)c2-c1ccc(Br)s1 [Cpd 57, (7R)-3-(5-bromo-thiophen-2-yl)-2-(2,4-dichloro-phenyl)-4,5,6,7-tetrahydro-2H-indazole-7-carboxylic acid [(1S)-2-hydroxy-1-phenyl-ethyl]-amide] | 0.3 µM |  | 0.3 µM |  |
| COc1ccc(-c2c3c(nn2-c2ccc(Cl)cc2Cl)C(C(=O)N[C@H](C)c2ccccn2)CCC3)cc1 (stereo partly drawn) [Cpd 27, 2-(2,4-dichloro-phenyl)-3-(4-methoxy-phenyl)-4,5,6,7-tetrahydro-2H-indazole-7-carboxylic acid [(1R)-1-pyridin-2-yl-ethyl]-amide] | 0.031 µM |  |  |  |

— patent US7795294B2, “Tetrahydro-2H-indazole pyrazole cannabinoid modulators” (Janssen Pharmaceutica N.V., priority 2006, dated 2010)
